The target of the assay is T1, α-glucosidase (Saccharomyces cerevisiae, UniProt P53341).
T1 construct: purchased Sigma-Aldrich G0660
Put plainly: biochemical. The format is biochemical. To be noted: 37 °C, 30 minutes, pH 6.8. How it is done: All analytically graded reagents were purchased from either Sigma-Aldrich or Merck & Co. and used without further purification. Solvents for column chromatography were distilled before use. Melting points (in °C) were determined on a Thermo Mel-temp 3.0 (USA). Infrared (IR) spectra were recorded on an IMPACT 410 Nicolet Spectrometer. ESI-MS spectra were obtained from an 1100 Agilent LC/MS ion Trap. 1D (^1H, ^13C and DEPT) and 2D (HSQC, HMBC, COSY, NOESY) NMR spectra were recorded on a Bruker Avance 500 MHz using tetramethylsilane (TMS) as the internal standard for ^1H and solvent signal for ^13C NMR. Thin-layer chromatography (TLC) was carried out on a pre-coated silica gel 60 F254 (Merck & Co.), visualised under ultraviolet (UV) radiation at λmax 254 nm, and stained by a solution of 1% (w/w) vanillin in sulfuric acid. Column chromatography (CC) was performed on silica gel 300–400 mesh (Merck & Co.). Enzyme α-glucosidase was purchased from Sigma-Aldrich under the name code G0660, detected by a Biotek Epoch 2 microplate readers (USA).
Each assay was performed on 96 well-plates (200 μL per well). The test samples were dissolved in DMSO 10% and further diluted to the concentrations: 1024, 256, 64, 16, 4, 1 μg.mL^−1. Each concentration of the test sample (10 μL) was incubated at 37 °C with phosphate buffer 100 mM (pH 6.8, 40 μL), α-glucosidase 0.4 U mL^−1 (25 μL), p-nitrophenyl α-D-glucopyranoside 2.5 mM (25 μL). After 30 minutes, the reaction was terminated by adding 100 μL of 0.1 M Na2CO3 solution. The enzyme activities were determined by measuring the absorbance at λmax 410 nm. […] Percentage of inhibition was calculated as followed:[31] [drawing 1]

Where [1] appears, read: IC50 (α-glucosidase inhibitory activity).

Read-outs that look alike come from different tables or passages of the source.

T1 sequence (P53341 whole entry): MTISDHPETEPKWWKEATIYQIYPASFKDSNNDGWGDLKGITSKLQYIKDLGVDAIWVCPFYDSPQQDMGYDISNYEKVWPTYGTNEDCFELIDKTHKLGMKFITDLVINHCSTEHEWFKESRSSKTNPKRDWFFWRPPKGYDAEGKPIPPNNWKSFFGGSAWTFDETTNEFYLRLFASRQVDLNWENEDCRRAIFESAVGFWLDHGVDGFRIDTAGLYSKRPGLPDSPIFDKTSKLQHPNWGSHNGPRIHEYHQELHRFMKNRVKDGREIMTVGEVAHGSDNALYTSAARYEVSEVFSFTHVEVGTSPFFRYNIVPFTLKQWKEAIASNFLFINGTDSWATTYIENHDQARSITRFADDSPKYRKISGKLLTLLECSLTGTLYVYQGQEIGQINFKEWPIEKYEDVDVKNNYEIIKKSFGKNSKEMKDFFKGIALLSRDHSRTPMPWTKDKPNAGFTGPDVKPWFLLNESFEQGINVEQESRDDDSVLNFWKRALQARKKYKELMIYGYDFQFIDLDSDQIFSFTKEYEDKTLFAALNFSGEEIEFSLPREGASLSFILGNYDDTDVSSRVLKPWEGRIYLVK

A word on the IC50: it is the concentration needed to halve the response being measured. For the compound `COc1ccc(CCC(=O)OC2C3C=COC(OC4OC(CO)C(O)C(O)C4O)C3C3(CO)OC23)cc1` (stereo not shown) [Compound 3, 6-O-(4-methoxyphenylpropanoyl)catalpol], the “IC50 (α-glucosidase inhibitory activity)” value was “inactive”. Moreover, the IC50 under setting [1] was above 390 µM.
In turn, `COc1ccc(C=CC(=O)OC2C3C=COC(OC4OC(COC(c5ccccc5)(c5ccccc5)c5ccccc5)C(O)C(O)C4O)C3C3(COC(c4ccccc4)(c4ccccc4)c4ccccc4)OC23)cc1OC` (stereo not shown) [Compound 6, 6-O-[(E)-3,4-dimethoxy]catalpol-10,6′-O-ditriphenylmethyl] gave a 50% inhibitory concentration (IC50) under setting [1] of 225 µM.
Same read-out and setting: the same measure for `COc1ccc(C=CC(=O)OC2C3C=COC(OC4OC(CO)C(O)C(O)C4O)C3C3(CO)OC23)cc1` (stereo not shown) [Compound 1, 6-O-[(E)-4-methoxycinnamoyl]catalpol]: 24.9 µM; for `CC(=CCO)CCC=C(C)C(=O)OC1C2C=COC(OC3OC(CO)C(O)C(O)C3O)C2C2(CO)OC12` (stereo not shown) [Compound 10, nemoroside]: 0.05 µM; for `CC(=O)OCC1OC(OC2OC=CC3C(OC(=O)C=Cc4ccc(OC(C)=O)cc4)C4OC4(COC(C)=O)C23)C(OC(C)=O)C(OC(C)=O)C1OC(C)=O` (stereo not shown) [Compound 12, specioside hexaacetate]: 71.6 µM.
As to `COc1ccc(C=CC(=O)OC2C3C=COC(OC4OC(COC(C)=O)C(OC(C)=O)C(OC(C)=O)C4OC(C)=O)C3C3(COC(C)=O)OC23)cc1` (stereo not shown) [Compound 7, minecoside pentaacetate], under setting [1], the IC50 was 168 µM.
On to `COc1ccc(CCC(=O)OC2C3C=COC(OC4OC(COC(C)=O)C(OC(C)=O)C(OC(C)=O)C4OC(C)=O)C3C3(COC(C)=O)OC23)cc1OC` (stereo not shown) [Compound 5, 6-O-(3,4-dimethoxyphenylpropanoyl)catalpolpentaacetate], for which the “IC50 (α-glucosidase inhibitory activity)” value was “inactive”. The compound also showed an IC50 under setting [1] above 390 µM.
Regarding `COc1ccc(/C=C/C(=O)O[C@H]2[C@@H]3C=CO[C@@H](O[C@@H]4O[C@H](CO)[C@@H](O)[C@H](O)[C@H]4O)[C@@H]3[C@@]3(CO)O[C@@H]23)cc1O` [Compound 13, minecoside], under setting [1], the IC50 is 20.8 µM.
For `COc1ccc(C=CC(=O)OC2C3C=COC(OC4OC(COC(C)=O)C(OC(C)=O)C(OC(C)=O)C4OC(C)=O)C3C3(COC(C)=O)OC23)cc1OC(C)=O` (stereo not shown) [Compound 11, 6-O-[(E)-4-methoxycinnamoyl]catalpolhexaacetate], the “IC50 (α-glucosidase inhibitory activity)” value was “inactive”. This compound returned an IC50 under setting [1] above 390 µM.
For `COc1ccc(C=CC(=O)OC2C3C=COC(OC4OC(COC(C)=O)C(OC(C)=O)C(OC(C)=O)C4OC(C)=O)C3C3(COC(C)=O)OC23)cc1OC` (stereo not shown) [Compound 8, 6-O-[(E)-3,4-dimethoxycinnamoyl]catalpolpentaacetate], in that order: “inactive” and above 390 µM.
As for `O=C(/C=C/c1ccc(O)cc1)O[C@H]1[C@@H]2C=CO[C@@H](O[C@@H]3O[C@H](CO)[C@@H](O)[C@H](O)[C@H]3O)[C@@H]2[C@@]2(CO)O[C@@H]12` [Compound 14, specioside], the IC50 (read-out: IC50 (α-glucosidase inhibitory activity)) came out at 8.65 µM.
The compound `COc1ccc(C=CC(=O)OC2C3C=COC(OC4OC5COC(C)(C)OC5C(O)C4O)C3C3(CO)OC23)cc1` (stereo not shown) [Compound 9, 6-O-[(E)-4-methoxycinnamoyl]catalpol-4′,6′-acetonide] yielded an IC50 under setting [1] above 390 µM.
The same measure, in the same setting: the value for `COc1ccc(C=CC(=O)OC2C3C=COC(OC4OC(CO)C(O)C(O)C4O)C3C3(CO)OC23)cc1OC` (stereo not shown) [Compound 2, 6-O-[(E)-3,4-dimethoxycinnamoyl]catalpol] was 7.24 µM.
With `COc1ccc(CCC(=O)OC2C3C=COC(OC4OC(CO)C(O)C(O)C4O)C3C3(CO)OC23)cc1OC` (stereo not shown) [Compound 4, 6-O-(3,4-dimethoxyphenylpropanoyl)catalpol], the “IC50 (α-glucosidase inhibitory activity)” value was “inactive”. The compound further came in with an IC50 under setting [1] above 390 µM.

The record behind these values is PMC8696980, “Isolation, semi-synthesis, docking-based prediction, and bioassay-based activity of Dolichandrone spathacea iridoids: new catalpol derivatives as glucosidase inhibitors” (RSC Advances, 2021).
